Among the data in ChEMBL document CHEMBL6134928, “Novel Bicyclic DGK Inhibitors for Treating Metastatic Melanoma” (ACS Med Chem Lett, 2025) are IC50 values, retold here.

The target in this assay is Diacylglycerol kinase alpha (Homo sapiens, UniProt P23743). Description: Inhibition of recombinant human DGKalpha using DLG as substrate preincubated with compound followed by substrate addition and measured after 90 mins in presence of ATP by ADP-Glo reagent based analysis.

SMILES strings stand for the structures.

Chain of Diacylglycerol kinase alpha (P23743 whole entry): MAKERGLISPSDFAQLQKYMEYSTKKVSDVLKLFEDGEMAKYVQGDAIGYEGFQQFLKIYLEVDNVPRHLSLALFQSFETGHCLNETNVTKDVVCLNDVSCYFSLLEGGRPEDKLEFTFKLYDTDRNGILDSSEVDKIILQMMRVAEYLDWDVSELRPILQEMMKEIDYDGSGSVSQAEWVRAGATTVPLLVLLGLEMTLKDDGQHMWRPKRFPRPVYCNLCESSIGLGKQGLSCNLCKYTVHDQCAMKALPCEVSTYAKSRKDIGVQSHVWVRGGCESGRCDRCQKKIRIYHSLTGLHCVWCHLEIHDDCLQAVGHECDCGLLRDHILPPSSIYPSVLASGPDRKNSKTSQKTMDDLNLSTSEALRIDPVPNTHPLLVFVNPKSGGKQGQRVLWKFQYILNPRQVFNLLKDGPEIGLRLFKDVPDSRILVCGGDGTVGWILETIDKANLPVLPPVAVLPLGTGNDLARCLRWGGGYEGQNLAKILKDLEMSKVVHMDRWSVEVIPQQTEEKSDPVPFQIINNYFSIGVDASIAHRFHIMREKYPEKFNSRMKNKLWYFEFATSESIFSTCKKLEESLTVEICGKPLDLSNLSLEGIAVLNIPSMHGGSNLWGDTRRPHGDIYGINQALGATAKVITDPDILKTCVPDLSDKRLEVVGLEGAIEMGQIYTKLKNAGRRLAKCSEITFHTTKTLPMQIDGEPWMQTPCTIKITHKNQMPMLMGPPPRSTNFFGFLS

For the compound `C[C@@H]1CN(c2nc(=O)n(C)c3c2nnn3C[C@H]2CCCO2)[C@@H](C)CN1C(c1ccc(F)cc1)c1ccc(F)cc1`, the IC50 (in general, the concentration needed to halve the response being measured) was at most 0.01 µM.
Then `C[C@@H]1CN(c2nc(=O)n(C)c3c2ncn3CC2(O)CCC2)[C@@H](C)CN1C(c1ccc(Cl)cc1)C1CC(F)(F)C1` (stereo partly specified), with at most 0.01 µM.
For `C[C@@H]1CN(c2nc(=O)n(C)c3c2cnn3C)[C@@H](C)CN1C(c1ccc(F)cc1)c1ccc(F)cc1` the value was at most 0.01 µM; for `C[C@@H]1CN(c2nc(=O)n(C)c3c2nnn3C[C@H]2CCCO2)[C@@H](C)CN1C(c1ccc(C(F)(F)F)cn1)c1ccc(C(F)(F)F)cn1`, at most 0.01 µM; for `CC[C@@H]1CN(c2nc(=O)n(C)c3c2nc(C)n3C[C@@H]2CCCO2)[C@@H](C)CN1C(c1ccc(C(F)(F)F)cc1)C1CC(F)(F)C1` (stereo partly specified), at most 0.01 µM.
With `Cc1nc2c(N3C[C@@H](C)N(C(c4ccc(F)cc4)c4ccc(F)cc4)C[C@@H]3C)nc(=O)[nH]c2n1C[C@@H]1CCCO1`, the IC50 was at most 0.01 µM.
